Reference: patent US20040097534A1, “Composition for the protection and regeneration of nerve cells containing berberine derivatives” (EUGENBIO INC., priority 2001, published 2004)
“And” between values parts separate entries of the source, which are not always exact repeats. Identical values can stand only once. “Also recorded” adds a separate entry of the source.

How the values were obtained:
[1] = test system: nerve cells in CA1, dentate gyrus and entorhinal cortex; test: Animal model for dementia (ibotenic acid into entorhinal cortex), calbindin-positive neuron count; format: in vivo, rat
Procedure: After white rat brain was fixed with a stereotaxic frame, 1.5 μl (1 mg/ml) of ibotenic acid and PBS, or 1.5 μl (1 mg/ml) of berberine was injected into the entorhinal cortex region using a microinjector to prepare a model for dementia. […]
Brain was fixed with 4% paraformaldehyde and cryosected to a thickness of 40 μm, and then the cryosected brain was permeablized with 0.5% Triton X-100 for 20 minutes and blocked using 15% blocking serum for 2 hours. After reacting with anti-calbindin antibody at a temperature 4° C. for 16 hours and then further reacting with FITC-labeled secondary antibody or rhodamin (TRITC)-labeled secondary antibody for 1 hour, the cells were fixed on a slide before examining under a confocal microscope.
As an animal model for dementia, ibotenic acid was microinjected into the entorhinal cortex of adult rat brain using a stereotaxic frame.
First, an adult rat was anesthetized, and its head was fixed with a stereotaxic frame. Subsequently, 1.5 μl (1 mg/ml) of ibotenic acid was injected into the entorhinal cortex region to prepare a model for dementia, and then berberine was injected into the same site. 2 weeks after operation, brain tissue sections were counter-stained with hematocylin to examine apoptosis and protective effect. After fluorescence-staining the cells, regions used for cell count were represented as squares (FIG. 14). In addition, the cells were fluorescence-stained with calbindin antibody, a nerve-specific marker, to examine nerve cell survival (see, Tables 8 to 10, FIGS. 11 and 12).

bcl-2 mRNA = test: Expression of bcl-2 mRNA in white rat cerebra (RT-PCR); format: in vivo; conditions: berberine 5 mg/kg intraperitoneally
Procedure: All groups were intraperitoneally injected. RT-PCR was performed to examine the expression of bcl-2 mRNA, which is an anti-apoptosis gene expressed in cerebral tissues. GAPDH mRNA was used as a control group. The expression of GAPDH mRNA was also performed by RT-PCR method.
1 ml of TRI Reagent (Molecular Research Center Inc., USA) was added to 100 mg of cerebral tissue sections, and the mixture was homogenized and then left at room temperature for 10 minutes. 0.1 ml of BCP (Sigma, USA) was added to 1 ml of the homogenized mixture, mixed with each other for 1 minute, and then left at 4° C. for 10 minutes. After the mixture was centrifuged at 12,000 rpm, 4° C. for 15 minutes, the supernatant was added to cold isopropanol and left at a temperature of −20° C. for 16 hours. Thereafter, the supernatant was centrifuged at 12,000 rpm, 4 for 15 minutes to obtain RNA precipitates. The obtained RNA precipitates were washed with DEPC diethylpyrocarbonate)-treated cold ethanol (75%), and dried using SpeedVac. The dried RNA was dissolved in DEPC-treated distilled water. After the concentration and purity of RNA were spectrophotometrically measured at 260 nm, the isolated RNA was stored at a temperature of −20° C. before use. […]
10 μl of amplified PCR product was electrophoresed in a 1.5% agarose gel, and the density was measured using a gel documentation system (Bio-Rad Lab, USA).

[2] = Ibotenic Acid + Berberine, 2 weeks after operation
[3] = berberine injected after ibotenic acid

## COc1ccc2cc3[n+](cc2c1OC)CCc1cc2c(cc1-3)OCO2 [Berberine, 7,8,13,13a-tetradihydro-9,10-dimethoxy-2,3-(methylenedioxy) berbinium]
[1]; Berberine alone
  cell number (%) relative to Ibotenic Acid, CA, average: 311%
  cell number (%) relative to Ibotenic Acid, DG, average: 204%
  cell number (%) relative to Ibotenic Acid, ENT, average: 225%
  cell number relative to Ibotenic Acid average = 100, CA (individual animals #1-#3): 355 and 257 and 320
  cell number relative to Ibotenic Acid average = 100, DG (individual animals #1-#3): 229 and 189 and 195
  cell number relative to Ibotenic Acid average = 100, ENT (individual animals #1-#3): 237 and 208 and 229
  cell number, CA (individual animals #1-#3): 174 and 126 and 157
  cell number, CA, AVR: 152.3
  cell number, DG (individual animals #1-#3): 421
  cell number, DG, AVR: 375.3
  cell number, ENT (individual animals #1-#3): 173 and 152 and 167
  cell number, ENT, AVR: 164
[1]; Ibotenic Acid + Berberine
  cell number (%) relative to Ibotenic Acid, CA, average: 278%
  cell number (%) relative to Ibotenic Acid, DG, average: 190%
  cell number (%) relative to Ibotenic Acid, ENT, average: 126%
  cell number relative to Ibotenic Acid average = 100, CA (individual animals #1-#3): 231 and 337 and 267
  cell number relative to Ibotenic Acid average = 100, DG (individual animals #1-#3): 221 and 157 and 191
  cell number relative to Ibotenic Acid average = 100, ENT (individual animals #1-#3): 129 and 122 and 127
  cell number, CA, AVR: 136.3
  cell number, DG, AVR: 348.7
  cell number, ENT, AVR: 92
[1]; [2]
  cell number, CA (individual animals #1-#3): 113 and 165 and 131
  cell number, DG (Dentate Gyrus) (individual animals #1-#3): 406 and 289 and 351
  cell number, ENT (Entorhinal Cortex) (individual animals #1-#3): 94 and 89 and 93
[1]; [3]
  survival of calbindin-positive neurons in the entorhinal cortex: somewhat increased
  survival rates of granule cells in the dentate gyrus regions, increase: doubled; also recorded: two times
  survival rates of pyramidal cells in the CA1 region, increase: 2.5 times
bcl-2 mRNA
  expression of bcl-2 mRNA in cerebral tissues: High bcl-2 mRNA Expression
bcl-2 mRNA; listed as berberine
  expression of bcl-2 mRNA in cerebral tissues: higher than in the control group; also recorded: increased
